# Experimental data taken from PubChem BioAssay (NCI).
#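 Abbreviation: GI50, concentration required for 50% inhibition of growth. TGI: total growth inhibition.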
# What was measured:
# Test in all cases: NCI anticancer screen, dose series, 384-well format
# [1] = system: A549 NSCLC
# [2] = system: U251 glioblastoma
# [3] = system: SF-539 CNS
# [4] = system: HOP-62 NSCLC
# [5] = system: NCI-H226 lung
# [6] = system: MALME-3M melanoma
# [7] = system: HL-60(TB) leukemia
# [8] = system: HS 578T breast
# [9] = system: EKVX NSCLC
# [10] = system: HT29 colon
# [11] = system: M14 melanoma
# [12] = system: MDA-MB-231 breast
# [13] = system: SF-268 CNS
# [14] = system: UACC-62 melanoma
# [15] = system: COLO 205 colon
# [16] = system: SR leukemia
# [17] = system: OVCAR-4 ovarian
# [18] = system: HCT-116 colon
# [19] = system: NCI/ADR-RES ovarian
# [20] = system: SF-295 CNS
# [21] = system: A498 renal
# [22] = system: UO-31 renal
# [23] = system: PC-3 prostate
# [24] = system: K-562 leukemia
# [25] = system: NCI-H322M lung
# [26] = system: CAKI-1 renal
# [27] = system: HCT-15 colon
# [28] = system: IGROV1 ovarian
# [29] = system: RPMI-8226 leukemia
# [30] = system: MDA-MB-468 breast
# [31] = system: UACC-257 melanoma
# [32] = system: BT-549 breast
# [33] = system: LOX IMVI melanoma
# [34] = system: HOP-92 NSCLC
# [35] = system: OVCAR-5 ovarian
# [36] = system: SK-OV-3 ovarian
# [37] = system: 786-0 renal
# [38] = system: RXF 393 renal
# [39] = system: MOLT-4 leukemia
# [40] = system: OVCAR-8 ovarian
# [41] = system: MDA-MB-435 melanoma
# [42] = system: NCI-H522 lung
# [43] = system: SK-MEL-5 melanoma
# [44] = system: ACHN renal
# [45] = system: SNB-19 CNS
# [46] = system: SK-MEL-2 melanoma
# [47] = system: T-47D breast
smiles,measurement,setting,value
Cc1ccc(S(=O)(=O)Cc2nc(-c3ccc(C(=O)NCc4cccnc4)cc3)oc2C)cc1,GI50,[1],19.4 nM
same,TGI,[1],41.9 nM
same,GI50,[2],< 10 nM
same,TGI,[2],< 10 nM
same,GI50,[3],< 10 nM
same,TGI,[3],< 10 nM
same,GI50,[4],< 10 nM
same,TGI,[4],11.9 nM
same,GI50,[5],119 nM
same,TGI,[5],602 nM
same,GI50,[6],19.1 nM
same,TGI,[6],43.8 nM
same,GI50,[7],< 10 nM
same,TGI,[7],< 10 nM
same,GI50,[8],< 10 nM
same,TGI,[8],< 10 nM
same,GI50,[9],< 10 nM
same,TGI,[9],25.1 nM
same,GI50,[10],18.9 nM
same,TGI,[10],37.9 nM
same,GI50,[11],< 10 nM
same,TGI,[11],16.9 nM
same,GI50,[12],39.4 nM
same,TGI,[12],149 nM
same,GI50,[13],< 10 nM
same,TGI,[13],12.9 nM
same,GI50,[14],16.5 nM
same,TGI,[14],34.5 nM
same,GI50,[15],< 10 nM
same,TGI,[15],< 10 nM
same,GI50,[16],18.1 nM
same,TGI,[16],33.3 nM
same,GI50,[17],19.3 nM
same,TGI,[17],39.6 nM
same,GI50,[18],< 10 nM
same,TGI,[18],< 10 nM
same,GI50,[19],15.2 nM
same,TGI,[19],29.4 nM
same,GI50,[20],14.1 nM
same,TGI,[20],28 nM
same,GI50,[21],56.9 nM
same,TGI,[21],691 nM
same,GI50,[22],< 10 nM
same,TGI,[22],< 10 nM
same,GI50,[23],< 10 nM
same,TGI,[23],< 10 nM
same,GI50,[24],< 10 nM
same,TGI,[24],< 10 nM
same,GI50,[25],< 10 nM
same,TGI,[25],< 10 nM
same,GI50,[26],< 10 nM
same,TGI,[26],15.5 nM
same,GI50,[27],< 10 nM
same,TGI,[27],16.3 nM
same,GI50,[28],11.2 nM
same,TGI,[28],23.7 nM
same,GI50,[29],< 10 nM
same,TGI,[29],< 10 nM
same,GI50,[30],11.8 nM
same,TGI,[30],26.1 nM
same,GI50,[31],27.5 nM
same,TGI,[31],59.6 nM
same,GI50,[32],17.9 nM
same,TGI,[32],32.7 nM
same,GI50,[33],17.1 nM
same,TGI,[33],78.7 nM
same,GI50,[34],22 nM
same,TGI,[34],52.6 nM
same,GI50,[35],< 10 nM
same,TGI,[35],< 10 nM
same,GI50,[36],< 10 nM
same,TGI,[36],< 10 nM
same,GI50,[37],< 10 nM
same,TGI,[37],16.1 nM
same,GI50,[38],16.9 nM
same,TGI,[38],33.4 nM
same,GI50,[39],< 10 nM
same,TGI,[39],< 10 nM
same,GI50,[40],< 10 nM
same,TGI,[40],< 10 nM
same,GI50,[41],13.2 nM
same,TGI,[41],26.1 nM
same,GI50,[42],< 10 nM
same,TGI,[42],< 10 nM
same,GI50,[43],< 10 nM
same,TGI,[43],20.8 nM
same,GI50,[44],12.5 nM
same,TGI,[44],28.7 nM
same,GI50,[45],< 10 nM
same,TGI,[45],< 10 nM
same,GI50,[46],< 10 nM
same,TGI,[46],< 10 nM
same,GI50,[47],< 10 nM
same,TGI,[47],< 10 nM
